{"source": "patent US7094789B2", "about": "“5-substituted isoquinoline derivatives” (Asahi Kasei Pharma Corporation, priority 2002, dated 2006)", "key": {"[1]": {"system": "thoracic aorta constricted with phenylephrine", "assay": "Vasoconstriction inhibitory action (Test Example 2)", "parameters": "species or system Rats (Wistar)", "settings": "for vasoconstriction inhibitory action: result in words, rat thoracic aorta, phenylephrine", "description": "Rats (Wistar, 11-week old) were bleeded to death and laparotomized to take out the thoracic aorta. That aorta was cut into a ring of a length of about 3 mm in a conventional manner (Asano, T., et al., J. Pharmacol. Exp. Ther., 241, pp. 1033–1040 (1987)) and hung in 10-ml organ bath filled with Krebs-Hensright nutrient solution bubbled with a mixed gas of 95% O2 and 5% CO2. One end of the blood vessel was connected to an isometric transducer (FD Pickup TB-912T, Nihon Kohden) and applied with 2.5 g of resting tension, and constriction and relaxation reactions of the aorta were recorded. The aorta was constricted with phenylephrine (1 μM, Sigma) and then added with a test compound (1 μM), and the vasoconstriction inhibitory action thereof was observed. The vasoconstriction inhibitory actions of the test compounds are shown in Table 6 mentioned below as the relaxation ratios, which are based on the vasoconstriction with phenylephrine immediately before the addition of the test compound taken as 100%."}, "[2]": {"system": "neutrophils", "assay": "Neutrophil migration inhibitory action (Test Example 5)", "type": "cell-based", "settings": "Homo sapiens, 0.5 h, FMLP 1 μM, Boyden Chamber, 37° C., 30 minutes, read-out: Neutrophil migration inhibition IC50", "protocol": "Neutrophils were isolated from 50 to 100 ml of peripheral blood collected from healthy donors by the method described in Test Example 1 to obtain a cell suspension (8×10^6/ml). Subsequently, solutions of a test compound at various concentrations were introduced into wells of a 96-well plate in a volume of 125 μl per well, the cell suspension of an equivalent volume was added to it and the plate was preincubated at room temperature for 5 minutes. During the preincubation, FMLP (1 μM, Sigma) solution was added to the lower chamber to set Boyden Chamber, the preincubated cell suspension was added to the upper chamber in a volume of 200 μl per well, and the cells were allowed to migrate at 37° C. under 5% carbon dioxide for 30 minutes. The filter after the migration was collected, and the non-migrated cells adhered to the surface that faced the upper chamber were carefully wiped off. Then, the migrated cells on the back surface were stained with DifQuick dye solution (International Reagents), washed with water and dried, and then absorbance was measured at 595 nm. The inhibition ratio against migration (%) of a test compound was calculated by using the following equation: Migration inhibition ratio (%)=(1−Absorbance of the group with addition of test compound/Absorbance of the group without addition of test compound)×100 […]"}, "[3]": {"system": "phosphorylated myosin regulatory light chain", "assay": "Action on amount of phosphorylated myosin regulatory light chain in the cells (Test Example 1)", "type": "cell-based", "settings": "Homo sapiens, Neutrophil, 5 min, human neutrophils; reaction with test compound at 25° C. for 5 minutes; read-out: Inhibition of myosin regulatory light chain phosphorylation (IC50: μM)", "protocol": "A volume of 50 to 100 ml of peripheral blood collected from healthy volunteers was centrifuged by using Mono-Poly separator solution (Dainippon Pharmaceutical) to prepare a neutrophil containing fraction. The neutrophils were washed with PBS(−) and resuspended in Hanks' Balanced Salt Solution (HBSS+, Gibco) to prepare a cell suspension (8×10^6/ml). The cell suspension was diluted to 5×10^6/ml, introduced into Eppendorf tubes in a volume of 0.4 ml each, then 0.1 ml each of solutions of a test compound at various concentrations were added to the suspension and allowed to react at 25° C. for 5 minutes. […]\nThe gel after the electrophoresis was blotted on a nitrocellulose membrane (BioRad), blocked with 5% skim milk, and reacted successively with antibodies pLC1 (Sakurada K. et al, Am. J. Physiol., 274, C1563–C1572 (1998)), which specifically recognize the phosphorylated myosin regulatory light chain, and donkey anti-mouse IgG (Chemicon) conjugated with horseradish peroxidase (HRP-labeled). The band of the phosphorylated myosin regulatory light chain was detected on a film by using ECL Plus Kit (Amersham Pharmacia Biotech). This band was subjected to quantification using a densitometer. By using this value, the inhibitory ratio (%) for phosphorylation of the myosin regulatory light chain was calculated by using the following equation. […]"}, "[4]": {"target": "T1, myosin light chain phosphorylation enzyme (MLCK) (Gallus gallus, UniProt P11799)", "T1 construct": "purified from chicken gizzard smooth muscle by a conventional method; from tissue; host or cells: chicken gizzard smooth muscle", "assay": "Action on myosin light chain phosphorylation enzyme (MLCK) activity", "type": "biochemical, chicken", "settings": "for inhibition of MLCK: result in words; for IC50: MLCK from chicken gizzard smooth muscle, ELISA, 100 μM ATP, read-out: Myosin light chain phosphorylation enzyme inhibitory action IC50", "protocol": "A myosin light chain phosphorylation enzyme (MLCK) was purified from chicken gizzard smooth muscle by a conventional method (Yoshida, M., et al., J. Biochem., 99, 1027–1036 (1986)). The myosin regulatory light chain as a substrate was purified from the chicken gizzard smooth muscle by a conventional method (Grand, R. J., et al., Biochem. J., 211, 267–272 (1983)). The MLCK activity was measured by ELISA using pLC1 described in Test Example 1 (Sakurada, K., et al., J. Biochem., 115, 18–21 (1994)). The myosin regulatory light chain was diluted in phosphate-buffered saline (PBS, Sigma) to a concentration of 5.0 µg/ml, added to 96-well Immunoplate (Nunc) in a volume of 100 μl per well and left stand overnight at 4° C. Each well was washed with PBS, and 25 mM Tris/HCl buffer containing 100 μM ATP, 3 mM MgCl2, 1 mM CaCl2, 100 ng/ml of calmodulin (Sigma) and 100 ng/ml of MLCK (pH 7.4, Buffer A) was added to each well and incubated at 30° C. for 10 minutes. In a volume of 100 μl each of 20% aqueous phosphoric acid solution was added to each well to terminate the enzymatic reaction. Each well was washed with 25 mM Tris/HCl buffer (TTBS) containing 0.1% Tween 20, and then 100 μl each of pLC1 described in Test Example 1 was added to each well and incubated at room temperature for 90 minutes.\nEach well was washed with TTBS, and then 100 μl of the HRP-labeled rabbit anti-mouse IgG antibodies (Bio-Rad) were added to each well and incubated at room temperature for 90 minutes. Each well was washed with TTBS, and then 25 mM citrate buffer (pH 5.0) containing orthophenylenediamine (Sigma) as a substrate of HRP and aqueous hydrogen peroxide (0.03%) was added in a volume of 100 μl per well and incubated at room temperature for 5 minutes. 50 μl of 4 N sulfuric acid was added to each well to terminate the reaction, and then absorbance was measured by using an immunoplate reader (Bio-Rad)."}, "[5]": {"system": "intraocular pressure", "assay": "Intraocular pressure reducing action (Test Example 4)", "type": "in vivo, Japanese white rabbit", "settings": "for inhibition in vivo at 1 %, 50 µL: Oryctolagus cuniculus, topical, 1% aqueous solution, 50 μl dropped to the left eye, after 2 hours, read-out: Intraocular pressure reducing action (reduction ratio) (%)", "protocol": "A Japanese white rabbit having a body weight of about 2 kg was placed in a positioner and naturalized for one week before the experiment. An ophthalmologic local anesthesant (Benoxil) was administered to the left eye, and then intraocular pressure was measured by using a tonometer (Classic 30, Solan). The initial value of the intraocular pressure was measured, then 50 μl of a test compound (1% aqueous solution) was dropped to the left eye, and after 2 hours, the intraocular pressure was measured. The intraocular pressure reducing action of the test compounds is shown in Table 7 mentioned below as ratios (%) of reduction of intraocular pressure based on the initial value of the intraocular pressure."}, "[6]": {"system": "OVA-induced respiratory tract inflammation", "assay": "Respiratory tract inflammation suppressing action (Test Example 6)", "type": "in vivo, BALB/c female mice", "settings": "result in words; OVA mice", "protocol": "According to the method described in Henderson, W. R., et al., Am. J. Respir. Cric. Care Med., 165(1), 108–116 (2002), suppressing action on bronchial inflammation was confirmed. BALB/c female mice (7-week old) were used for the test, each group consisting of 7 mice, and the control group consisting of 11 or 12 mice. The mice were intraperitoneally administered with ovalbumin (OVA, 100 ng, Sigma) and 1 mg of aluminum hydroxide for initial immunization, and after 2 weeks, they are subcutaneously administered with 10 ng of OVA as additional immunization. After further 1 week, a test compound was dissolved in water containing 0.5% carboxymethylcellulose and orally administered (30 mg/kg) to the test animals once a day for 5 days. The control group was similarly given only with water containing 0.5% carboxymethylcellulose. After 1 hour, the mice were orally inhaled with 2% OVA for 10 minutes to induce a respiratory tract inflammation. […] After 24 hours, alveoli in the lungs of the test animals were washed with physiological saline, and the total infiltrated white blood cells (WBC) were counted."}, "[7]": {"system": "ovalbumin-induced constriction of respiratory tract", "assay": "Respiratory tract constriction suppression action (Test Example 3)", "type": "in vivo, Hartley guinea pigs", "settings": "ovalbumin-immunized guinea pigs; test medicament via hind leg vein; 15 minutes after administration", "protocol": "Four-week old Hartley guinea pigs (male) were immunized by intraperitoneal administration of ovalbumin (Sigma, Grade V) in amounts of 1 mg for each animal on the day on which the experiment was started, 3 mg for each animal after 2 days, and 10 mg for each animal after 4 days. Twelve to fourteen days after the final immunization, the ovalbumin-immunized guinea pigs were anesthetized by intraperitoneal administration of about 40 mg/kg of pentobarbital (Somnopentyl), and the tracheas were taken out. Subsequently, a cannula (SP-110, Natsume) was inserted into each trachea, and one end of the cannula was connected to an artificial respirator (Model-b83, Harvard). The aeration conditions were set at 6 ml per kilogram and 60 times per 1 minute. Further, a cannula for medicament administration (JMS wing needle 23G 3/4) was inserted into a hind leg vein. Myoblock (Organon Technica) was administered in an amount of 0.5 mg/kg from the cannula inserted into the hind leg vein to stop the spontaneous breathing, and after 2 or 3 minutes, 0.3 mg/kg of ovalbumin was administered to induce constriction of respiratory tract. The increase of airway resistance value 2 minutes after the induction (measurement apparatuses: pressure transducer TR-603T, respiratory amplifier AR-601G, and recorder RTA-3100, Nihon Kohden Corp.) was confirmed to be above 80 cm H2O or higher, and then, a solution of a test medicament was administered from the cannula inserted into the hind leg vein, and the airway resistance value was continuously measured for 15 minutes after the administration to determine the effect."}}}
{"smiles": "CC1CNCCN1S(=O)(=O)c1cccc2cnccc12", "note": "(centres unmarked) [Example H-7, 1-(5-Isoquinolinesulfonyl)-2-methylpiperazine]", "values": [{"measurement": "Vasoconstriction inhibitory action (relaxation ratio) (%)", "setting": "[1]; test compound 1 μM, aorta constricted with phenylephrine 1 μM", "value": 22.0, "unit": "%"}, {"measurement": "IC50", "setting": "[2]", "value": "> 40", "unit": "µM"}, {"measurement": "IC50", "setting": "[3]", "value": 80, "unit": "µM"}]}
{"smiles": "Cc1cncc2cccc(NC3CCNCC3)c12.Cl", "note": "[Example 106, 4-(4-Methyl-5-isoquinolyl)aminopiperidine hydrochloride]", "values": [{"measurement": "vasoconstriction inhibitory action", "setting": "[1]", "value": "significant vasoconstriction inhibitory action"}, {"measurement": "inhibition of MLCK", "setting": "[4]", "value": "did not inhibit MLCK"}, {"measurement": "inhibition in vivo at 1 %, 50 µL", "setting": "[5]", "value": 31.3, "unit": "%"}, {"measurement": "infiltrated white blood cell number", "setting": "[6]", "value": "decrease of infiltrated white blood cell number"}, {"measurement": "constriction of respiratory tract (airway resistance value)", "setting": "[7]", "value": "significantly improved the constriction of respiratory tract"}]}
{"smiles": "Cl.NCCCN(CCc1cccs1)S(=O)(=O)c1cccc2cnccc12", "note": "[Example 2, N-[(5-Isoquinolyl)sulfonyl]-N-[2-(2-thienyl)ethyl]-1,3-propylenediamine hydrochloride]", "values": [{"measurement": "vasoconstriction inhibitory action", "setting": "[1]", "value": "significant vasoconstriction inhibitory action"}, {"measurement": "IC50", "setting": "[4]", "value": "> 50", "unit": "µM"}, {"measurement": "constriction of respiratory tract (airway resistance value)", "setting": "[7]", "value": "significantly improved the constriction of respiratory tract"}]}
{"smiles": "Cl.c1cc(NC2CCNCC2)c2ccncc2c1", "note": "[Example 20, 4-(5-Isoquinolyl)aminopiperidine hydrochloride]", "values": [{"measurement": "IC50", "setting": "[4]", "value": "> 100", "unit": "µM"}, {"measurement": "inhibition in vivo at 1 %, 50 µL", "setting": "[5]", "value": 35.7, "unit": "%"}, {"measurement": "constriction of respiratory tract (airway resistance value)", "setting": "[7]", "value": "significantly improved the constriction of respiratory tract"}]}
{"smiles": "Cl.OCCN1CCC(Nc2cccc3cnccc23)CC1", "note": "[Example 144, 1-(2-Hydroxyethyl)-4-(5-isoquinolyl)aminopiperidine hydrochloride]", "values": [{"measurement": "inhibition of MLCK", "setting": "[4]", "value": "did not inhibit MLCK"}, {"measurement": "intraocular pressure reducing activity", "setting": "[5]; result in words, rabbit", "value": "significant intraocular pressure reducing activity"}, {"measurement": "constriction of respiratory tract (airway resistance value)", "setting": "[7]", "value": "significantly improved the constriction of respiratory tract"}]}
